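Compound exposure: 48 hours, 5 concentrations, 96-well plates. The concentration for 50% growth inhibition is given as GI50.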 Active and inactive are the calls of the source. Rule as the data show it: active = GI50 up to about 1.1 µM and inactive = higher.
What was measured:
Experiment in all cases: DTP human tumour cell line panel, 48 h
A498 = system: A498
SK-MEL-28 = system: SK-MEL-28
SNB-19 = system: SNB-19
OVCAR-8 = system: OVCAR-8
SNB-75 = system: SNB-75
EKVX = system: EKVX
SF-295 = system: SF-295
DMS-273 = system: DMS-273
M19-MEL = system: M19-MEL
MOLT-4 = system: MOLT-4
DMS-114 = system: DMS-114
HOP-18 = system: HOP-18
A549 = system: A549
LXFL 529 = system: LXFL 529
SK-MEL-2 = system: SK-MEL-2
OVCAR-3 = system: OVCAR-3
SF-539 = system: SF-539
LOX IMVI = system: LOX IMVI
SK-MEL-5 = system: SK-MEL-5
OVCAR-4 = system: OVCAR-4
HOP-62 = system: HOP-62
CAKI-1 = system: CAKI-1
SF-268 = system: SF-268
SN12C = system: SN12C
KM-20L2 = system: KM-20L2
COLO 205 = system: COLO 205
HT-29 = system: HT-29
NCI-H460 = system: NCI-H460
M14 = system: M14
786-0 = system: 786-0
ACHN = system: ACHN
HCT-116 = system: HCT-116
RXF 393 = system: RXF 393
CCRF-CEM = system: CCRF-CEM
UO-31 = system: UO-31
DLD-1 = system: DLD-1
HL-60 = system: HL-60
SNB-78 = system: SNB-78
SK-OV-3 = system: SK-OV-3
U-251 = system: U-251
NCI-H23 = system: NCI-H23
IGROV-1 = system: IGROV-1
HOP-92 = system: HOP-92
Malme-3M = system: Malme-3M
NCI-H522 = system: NCI-H522
KM12 = system: KM12
OVCAR-5 = system: OVCAR-5
UACC-62 = system: UACC-62
RPMI-8226 = system: RPMI-8226
UACC-257 = system: UACC-257
TK-10 = system: TK-10
HCT-15 = system: HCT-15

For CCCCCCCOc1ccc(/C=C\c2cc[n+](CCCCCCCC[n+]3ccc(/C=C\c4ccc(OCCCCCCC)cc4)cc3)cc2)cc1, the GI50 (A498) was 26.6 µM (inactive), the GI50 (SK-MEL-28) was 17.6 µM (inactive) and the GI50 (SNB-19) was 7.87 µM (inactive). For the same compound, the GI50 (OVCAR-8) was 20.7 µM (inactive), the GI50 (SNB-75) was > 100 µM (inactive) and the GI50 (EKVX) was > 100 µM (inactive). For the same compound, the GI50 (SF-295) was 13.3 µM (inactive), the GI50 (DMS-273) was 4.3 µM (inactive) and the GI50 (M19-MEL) was 21.9 µM (inactive). The GI50 (MOLT-4) was 15.2 µM (inactive), the GI50 (DMS-114) was 21.6 µM (inactive) and the GI50 (HOP-18) was 15.1 µM (inactive). The GI50 (A549) was 8.55 µM (inactive), the GI50 (LXFL 529) was 13.3 µM (inactive) and the GI50 (SK-MEL-2) was 17.6 µM (inactive). For the same compound, the GI50 (OVCAR-3) was 19.1 µM (inactive), the GI50 (SF-539) was 65.5 µM (inactive) and the GI50 (LOX IMVI) was 25 µM (inactive). The GI50 (SK-MEL-5) was 14.6 µM (inactive), the GI50 (OVCAR-4) was 21.6 µM (inactive) and the GI50 (HOP-62) was 26.6 µM (inactive). For the same compound, the GI50 (CAKI-1) was 33.5 µM (inactive), the GI50 (SF-268) was 23.8 µM (inactive) and the GI50 (SN12C) was 20 µM (inactive). For the same compound, the GI50 (KM-20L2) was 29.6 µM (inactive), the GI50 (COLO 205) was 10.7 µM (inactive) and the GI50 (HT-29) was 13.8 µM (inactive). For the same compound, the GI50 (NCI-H460) was 5.51 µM (inactive), the GI50 (M14) was 17.5 µM (inactive) and the GI50 (786-0) was 14.7 µM (inactive). The GI50 (ACHN) was 38.2 µM (inactive), the GI50 (HCT-116) was 13.6 µM (inactive) and the GI50 (RXF 393) was > 100 µM (inactive). For the same compound, the GI50 (CCRF-CEM) was > 100 µM (inactive), the GI50 (UO-31) was 19.5 µM (inactive) and the GI50 (DLD-1) was 21.8 µM (inactive). The GI50 (HL-60) was 4.3 µM (inactive), the GI50 (SNB-78) was > 100 µM (inactive) and the GI50 (SK-OV-3) was 28.1 µM (inactive). The GI50 (U-251) was 7.46 µM (inactive), the GI50 (NCI-H23) was 28.2 µM (inactive) and the GI50 (IGROV-1) was 11.3 µM (inactive). For the same compound, the GI50 (HOP-92) was > 100 µM (inactive), the GI50 (Malme-3M) was 18.7 µM (inactive) and the GI50 (NCI-H522) was 2.64 µM (inactive). The GI50 (KM12) was 15 µM (inactive), the GI50 (OVCAR-5) was 17.7 µM (inactive) and the GI50 (UACC-62) was 35.3 µM (inactive). For the same compound, the GI50 (RPMI-8226) was 7.29 µM (inactive), the GI50 (UACC-257) was 86.1 µM (inactive) and the GI50 (TK-10) was 23.9 µM (inactive). The GI50 (HCT-15) was 19.9 µM.

— ChEMBL document CHEMBL1201862, “PubChem BioAssay data set” (2004)
